Here are results for 21 compounds from US9540343B2 (Gilead Sciences, Inc., priority 2011, dated 2017).

One data set relates to HIV-IIIb. Briefly: Test A: Antiviral assay in MT4 cells. The data set is classed as cell-based, HIV-1. The settings on record: Human immunodeficiency virus 1, IIIB, MT4, 120 h, read-out: % inhibition at 2 μM, percent inhibition of virus-induced cell killing, from dose response curve at 2 uM drug; MT-4 cells infected with HIV-IIIb, 5 days, CellTiter-Glo.
The nature of another data set: in vitro. As to conditions: human, uninfected MT-4 cells, CC50 (nM), same protocol as Test A, CellTiter-Glo. In a few lines: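 Cytoprotection read-out: CellTiter-Glo chemiluminescence after 5 days at 37 °C of HIV-IIIb-infected MT-4 cells (m.o.i. 0.003) with compound in 10-point 3-fold dilutions, quadruplicate, 10% FBS. Cytotoxicity (CC50) measured identically without virus.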

Molecules are shown by their SMILES.

Take `CCN(CC)S(=O)(=O)c1ccc(-c2cccnc2[C@H](Cc2cc(F)cc(F)c2)NC(=O)Cn2nc(C(F)F)c3c2C(F)(F)C2CC32)cc1` (stereo partly drawn) [Example 116, (S)—N-(1-(3-(4-(N,N-diethylsulfamoyl)phenyl)-pyridin-2-yl)-2-(3,5-difluorophenyl)ethyl)-2-(3-(difluoromethyl)-5,6-dihydro-4,5-(methano)-6,6-difluoro-cyclopenta[c]pyrazol-1(4H)-yl)acetamide]: the inhibition at 2 µM with HIV-IIIb is 72%. The CC50 at 5 days in “in vitro” was above 53200 nM.

Take `O=C(Cn1nc(C(F)(F)F)c2c1CCCC2)N[C@@H](Cc1cc(F)cc(F)c1)c1ncccc1-c1cccc(F)c1` [Example 117, (S)—N-(2-(3,5-difluorophenyl)-1-(3-(3-fluorophenyl)pyridin-2-yl)ethyl)-2-(3-(trifluoromethyl)-4,5,6,7-tetrahydro-1H-indazol-1-yl)acetamide]: the inhibition at 2 µM in the data set with HIV-IIIb came to 89%. In addition, half-maximal cytotoxicity in the data set “in vitro” (CC50 at 5 days) was put at 8260 nM.

On to `CN(C)S(=O)(=O)c1ccc(-c2cccnc2[C@H](Cc2cc(F)cc(F)c2)NC(=O)Cn2nc(C(F)F)c3c2C(F)(F)C2CC32)cc1` (stereo partly drawn) [Example 119, (S)—N-(1-(3-(4-(N,N-dimethylsulfamoyl)phenyl)-pyridin-2-yl)-2-(3,5-difluorophenyl)ethyl)-2-(3-(difluoromethyl)-5,6-dihydro-4,5-(methano)-6,6-difluoro-cyclopenta[c]pyrazol-1(4H)-yl)acetamide], for which the inhibition at 2 µM with HIV-IIIb was found to be 48%. In “in vitro”, the CC50 at 5 days is above 53200 nM.

Regarding `O=C(Cn1nc(C(F)F)c2c1C(F)(F)C1CC21)N[C@@H](Cc1cc(F)cc(F)c1)c1ncccc1-c1cncc2ccccc12` (stereo partly drawn) [Example 120, 2-(3-(difluoromethyl)-5,5-difluoro-3b,4,4a,5-tetrahydro-1H-cyclopropa[3,4]cyclopenta[1,2-c]pyrazol-1-yl)-N—((S)-2-(3,5-difluorophenyl)-1-(3-(isoquinolin-4-yl)pyridin-2-yl)ethyl)acetamide], the inhibition at 2 µM in the data set with HIV-IIIb was determined as 73%. This compound registered a 50% cytotoxic concentration (CC50) at 5 days in “in vitro” of 13800 nM.

For the compound `O=C(Cn1nc(C(F)(F)F)c2c1COCC2)N[C@@H](Cc1cc(F)cc(F)c1)c1ncccc1-c1ccc(Cl)cc1` [Example 121, (S)—N-(1-(3-(4-chlorophenyl)pyridin-2-yl)-2-(3,5-difluorophenyl)ethyl)-2-(3-(trifluoromethyl)-4,5-dihydropyrano[3,4-c]pyrazol-1(7H)-yl)acetamide], the inhibition at 2 µM in the data set with HIV-IIIb amounted to 68%. In “in vitro”, the midpoint of cytotoxicity, the CC50 at 5 days, lay at 9100 nM.

Consider `NC(=O)c1cc(-c2cccnc2[C@H](Cc2cc(F)cc(F)c2)NC(=O)Cn2[nH]c(=O)c3c2CCCC3)ccc1F` [Example 123E, (S)-5-(2-(2-(3,5-difluorophenyl)-1-(2-(3-oxo-2,3,4,5,6,7-hexahydro-1H-indazol-1-yl)acetamido)ethyl)pyridin-3-yl)-2-fluorobenzamide], for which the inhibition at 2 µM with HIV-IIIb worked out at 84%. Moreover, the CC50 at 5 days in the data set “in vitro” was above 53200 nM.

For `O=C(Cn1nc(C(F)F)c2c1C(F)(F)C1CC21)N[C@@H](Cc1cc(F)cc(F)c1)c1ncncc1-c1ccc2cccnc2c1` (stereo partly drawn) [Example 124C, 2-(3-(difluoromethyl)-5,5-difluoro-3b,4,4a,5-tetrahydro-1H-cyclopropa[3,4]cyclopenta[1,2-c]pyrazol-1-yl)-N—((S)-2-(3,5-difluorophenyl)-1-(5-(quinolin-7-yl)pyrimidin-4-yl)ethyl)acetamide], the inhibition at 2 µM in the data set on HIV-IIIb was found to be 77%. Also, it took 20200 nM to reach half-maximal cytotoxicity in “in vitro” (CC50 at 5 days).

In the case of `NC(=O)c1cc(-c2cccnc2[C@H](Cc2cc(F)cc(F)c2)NC(=O)[C@H]2CCC(=O)N2)ccc1F` [Example 125, (R)—N—((S)-1-(3-(3-carbamoyl-4-fluorophenyl)pyridin-2-yl)-2-(3,5-difluorophenyl)ethyl)-5-oxopyrrolidine-2-carboxamide], in the data set on HIV-IIIb, the inhibition at 2 µM was 0%. Also, the CC50 at 5 days in the data set “in vitro” was above 53000 nM.

As to `NC(=O)c1cc(-c2cccnc2[C@H](Cc2cc(F)cc(F)c2)NC(=O)C2CCCN2C(=O)c2ccccc2)ccc1F` (stereo partly drawn) [Example 126, 1-benzoyl-N—((S)-1-(3-(3-carbamoyl-4-fluorophenyl)pyridin-2-yl)-2-(3,5-difluorophenyl)ethyl)pyrrolidine-2-carboxamide], in the data set with HIV-IIIb, the inhibition at 2 µM came to 7%. The compound further showed a CC50 at 5 days in the data set “in vitro” above 53000 nM.

With `O=C(Cn1nc(C(F)F)c2c1C(F)(F)C1CC21)N[C@@H](Cc1cc(F)cc(F)c1)c1ncncc1-c1cccc2[nH]cnc12` (stereo partly drawn) [Example 127C, N—((S)-1-(5-(1H-benzo[d]imidazol-4-yl)pyrimidin-4-yl)-2-(3,5-difluorophenyl)ethyl)-2-(3-(difluoromethyl)-5,5-difluoro-3b,4,4a,5-tetrahydro-1H-cyclopropa[3,4]cyclopenta[1,2-c]pyrazol-1-yl)acetamide], the inhibition at 2 µM in the data set with HIV-IIIb turned out to be 97%. The same compound had a CC50 at 5 days in the data set “in vitro” of 31900 nM.

On to `CCOC(=O)N1CCCC1C(=O)N[C@@H](Cc1cc(F)cc(F)c1)c1ncccc1-c1ccc(F)c(C(N)=O)c1` (stereo partly drawn) [Example 128, ethyl 2-((S)-1-(3-(3-carbamoyl-4-fluorophenyl)pyridin-2-yl)-2-(3,5-difluorophenyl)ethylcarbamoyl)pyrrolidine-1-carboxylate], for which the inhibition at 2 µM in the data set with HIV-IIIb was found to be 7%. The compound also came in with a CC50 at 5 days in the data set “in vitro” of 23500 nM.

Regarding `NC(=O)c1cc(-c2cccnc2[C@H](Cc2cc(F)cc(F)c2)NC(=O)Cn2nc(C(F)(F)OCc3ccccn3)c3c2CCCC3)ccc1OCc1ccccn1` [Example 129, (S)-5-(2-(1-(2-(3-(difluoro(pyridin-2-ylmethoxy)methyl)-4,5,6,7-tetrahydro-1H-indazol-1-yl)acetamido)-2-(3,5-difluorophenyl)ethyl)pyridin-3-yl)-2-(pyridin-2-ylmethoxy)benzamide], the inhibition at 2 µM in the data set on HIV-IIIb was 0%. In the data set “in vitro”, this compound yielded a CC50 at 5 days of 10200 nM.

Take `NC(=O)c1cc(-c2cccnc2[C@H](Cc2cc(F)cc(F)c2)NC(=O)Cn2nc(C(F)(F)F)cc2C2=CCCC2)ccc1F` [Example 130D, (S)-5-(2-(1-(2-(5-cyclopentenyl-3-(trifluoromethyl)-1H-pyrazol-1-yl)acetamido)-2-(3,5-difluorophenyl)ethyl)pyridin-3-yl)-2-fluorobenzamide]: the inhibition at 2 µM with HIV-IIIb was 39%. The compound also gave a CC50 at 5 days in the data set “in vitro” of 15800 nM.

For `O=C(Cn1nc(C(F)F)c2c1C(F)(F)C1CC21)N[C@@H](Cc1cc(F)cc(F)c1)c1ncncc1-c1ccc2cnccc2c1` (stereo partly drawn) [Example 131C, 2-(3-(difluoromethyl)-5,5-difluoro-3b,4,4a,5-tetrahydro-1H-cyclopropa[3,4]cyclopenta[1,2-c]pyrazol-1-yl)-N—((S)-2-(3,5-difluorophenyl)-1-(5-(isoquinolin-6-yl)pyrimidin-4-yl)ethyl)acetamide], the inhibition at 2 µM with HIV-IIIb was determined as 47%. For the same compound, in the data set “in vitro”, it took 10400 nM to reach half-maximal cytotoxicity (CC50 at 5 days).

As to `CC(C)(C)OC(=O)N1C[C@H](O)C[C@H]1C(=O)N[C@@H](Cc1cc(F)cc(F)c1)c1ncccc1-c1ccc(F)c(C(N)=O)c1` [Example 132, (2S,4R)-tert-butyl 2-((S)-1-(3-(3-carbamoyl-4-fluorophenyl)pyridin-2-yl)-2-(3,5-difluorophenyl)ethylcarbamoyl)-4-hydroxypyrrolidine-1-carboxylate], in the data set with HIV-IIIb, the inhibition at 2 µM was 7%. Besides, the CC50 at 5 days in the data set “in vitro” turned out to be 22300 nM.

With `CC(C)(C)OC(=O)N1CCOC[C@@H]1C(=O)N[C@@H](Cc1cc(F)cc(F)c1)c1ncccc1-c1ccc(F)c(C(N)=O)c1` [Example 133, (R)-tert-butyl 3-((S)-1-(3-(3-carbamoyl-4-fluorophenyl)pyridin-2-yl)-2-(3,5-difluorophenyl)ethylcarbamoyl)morpholine-4-carboxylate], in the data set on HIV-IIIb, the inhibition at 2 µM was found to be 1%. This compound also gave a cytotoxic concentration (CC50) at 5 days in the data set “in vitro” above 53000 nM.

Take `NC(=O)c1cc(-c2cccnc2[C@H](Cc2cc(F)cc(F)c2)NC(=O)Cn2nc(C(F)(F)OCc3ccccn3)c3c2CCCC3)ccc1F` [Example 135, (S)-5-(2-(1-(2-(3-(difluoro(pyridin-2-ylmethoxy)methyl)-4,5,6,7-tetrahydro-1H-indazol-1-yl)acetamido)-2-(3,5-difluorophenyl)ethyl)pyridin-3-yl)-2-fluorobenzamide]: the inhibition at 2 µM with HIV-IIIb came out at 53%. In “in vitro”, this compound came in with a CC50 at 5 days of 21100 nM.

For `NC(=O)c1cc(-c2cncnc2[C@H](Cc2cc(F)cc(F)c2)NC(=O)Cn2nc(C(F)(F)F)c3c2CC2CC32)ccc1F` (stereo partly drawn) [Example 136D, 5-(4-((1S)-2-(3,5-difluorophenyl)-1-(2-(3-(trifluoromethyl)-3b,4,4a,5-tetrahydro-1H-cyclopropa[3,4]cyclopenta[1,2-c]pyrazol-1-yl)acetamido)ethyl)pyrimidin-5-yl)-2-fluorobenzamide], the inhibition at 2 µM in the data set on HIV-IIIb is 88%. Moreover, the midpoint of cytotoxicity in “in vitro”, the CC50 at 5 days, lay at 27800 nM.

Take `CC(C)(C)OC(=O)N1CC(=O)C[C@H]1C(=O)N[C@@H](Cc1cc(F)cc(F)c1)c1ncccc1-c1ccc(F)c(C(N)=O)c1` [Example 137, (S)-tert-butyl 2-((S)-1-(3-(3-carbamoyl-4-fluorophenyl)pyridin-2-yl)-2-(3,5-difluorophenyl)ethylcarbamoyl)-4-oxopyrrolidine-1-carboxylate]: the inhibition at 2 µM with HIV-IIIb turned out to be 1%. The same compound showed a cytotoxic concentration (CC50) at 5 days in “in vitro” of 21700 nM.

As to `NC(=O)c1cc(-c2cccnc2[C@H](Cc2cc(F)cc(F)c2)NC(=O)Cn2nc(C(F)(F)F)cc2C2CC2)ccc1F` [Example 138, (S)-5-(2-(1-(2-(5-cyclopropyl-3-(trifluoromethyl)-1H-pyrazol-1-yl)acetamido)-2-(3,5-difluorophenyl)ethyl)pyridin-3-yl)-2-fluorobenzamide], the inhibition at 2 µM with HIV-IIIb stood at 30%. The compound also came in with a CC50 at 5 days in “in vitro” of 24500 nM.

Turning to `CC(C)(C)OC(=O)N1[C@@H](c2ccccc2)CC[C@H]1C(=O)N[C@@H](Cc1cc(F)cc(F)c1)c1ncccc1-c1ccc(F)c(C(N)=O)c1` [Example 139, (2S,5R)-tert-butyl 2-((S)-1-(3-(3-carbamoyl-4-fluorophenyl)pyridin-2-yl)-2-(3,5-difluorophenyl)ethylcarbamoyl)-5-phenylpyrrolidine-1-carboxylate], in the data set on HIV-IIIb, the inhibition at 2 µM came out at 8%. Also, the CC50 at 5 days in the data set “in vitro” is 14000 nM.
